Biological target: SIK2 (Homo sapiens, UniProt Q9H0K1)
Assay: SIK2 Enzymatic Assay High Version 2 (High ATP)
Assay type: biochemical
Settings: not given
Method in brief: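 At room temperature, enzyme (6 nM, 2× final) was preincubated with compound for 30 min, then 6 mM ATP and 400 μM HDAC5tide (both 2× final) were added for 2 h. ADP formed was measured by ADP-Glo Max (2 h reagent, 1 h detection) using luminescence.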

SIK2, sequence (Q9H0K1 whole entry, species assumed): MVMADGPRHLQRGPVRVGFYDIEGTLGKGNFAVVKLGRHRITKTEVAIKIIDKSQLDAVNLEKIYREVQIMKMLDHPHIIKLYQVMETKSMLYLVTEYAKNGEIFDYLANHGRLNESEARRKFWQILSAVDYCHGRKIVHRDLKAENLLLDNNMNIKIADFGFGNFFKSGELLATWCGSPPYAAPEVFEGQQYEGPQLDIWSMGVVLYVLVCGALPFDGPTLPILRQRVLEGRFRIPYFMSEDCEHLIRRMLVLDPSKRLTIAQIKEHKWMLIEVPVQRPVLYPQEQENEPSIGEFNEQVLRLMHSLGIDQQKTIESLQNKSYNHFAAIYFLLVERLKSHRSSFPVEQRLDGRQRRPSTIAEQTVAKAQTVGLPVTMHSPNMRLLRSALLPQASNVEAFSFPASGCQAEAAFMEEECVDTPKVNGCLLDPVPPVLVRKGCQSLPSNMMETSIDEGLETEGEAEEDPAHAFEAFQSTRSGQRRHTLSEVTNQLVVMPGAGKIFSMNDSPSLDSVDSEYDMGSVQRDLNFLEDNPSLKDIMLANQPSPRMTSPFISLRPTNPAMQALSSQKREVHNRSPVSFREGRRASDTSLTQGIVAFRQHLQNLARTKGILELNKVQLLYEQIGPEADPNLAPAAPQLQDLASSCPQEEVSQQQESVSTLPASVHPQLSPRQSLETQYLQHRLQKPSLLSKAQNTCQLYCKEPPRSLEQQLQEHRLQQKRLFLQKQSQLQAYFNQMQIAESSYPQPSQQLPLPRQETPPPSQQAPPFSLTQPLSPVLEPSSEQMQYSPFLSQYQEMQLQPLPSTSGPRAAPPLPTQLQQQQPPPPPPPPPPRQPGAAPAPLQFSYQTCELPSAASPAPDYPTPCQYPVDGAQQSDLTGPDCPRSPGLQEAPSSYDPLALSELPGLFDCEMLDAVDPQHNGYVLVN

| Structure (SMILES) | IC50 [µM] |
| --- | --- |
| Cc1cc(-c2ccn3nc(Nc4cccc(C(F)(F)F)n4)cc3c2)c(O[C@H]2C[C@H]3COC[C@@H](C2)N3)cn1 [Example 366, 5-[2-methyl-5-[[(1S,5R, 7s)-3-oxa-9-azabicyclo[3.3.1]nonan-7-yl]oxy]-4-pyridyl]-N-[6-(trifluoromethyl)-2-pyridyl]pyrazolo[1,5-a]pyridin-2-amine] | 0.00156 |
| Cc1cc(-c2cc3cc(NC(=O)C4CC4)nn3cn2)c(O[C@H]2C[C@H]3COC[C@@H](C2)N3C)cn1 [Example 319, N-[5-[2-methyl-5-[[(1S,5R)-9-methyl-3-oxa-9-azabicyclo[3.3.1]nonan-7-yl]oxy]-4-pyridyl]pyrazolo[1,5-c]pyrimidin-2-yl]cyclopropanecarboxamide] | 0.00194 |
| [2H]C([2H])([2H])N1CC[C@H]1COc1cnc(C)cc1-c1ccn2nc(NC(=O)C3CC3)cc2c1 [Example 575, N-[5-[2-methyl-5-[[(2S)-1-(trideuteriomethyl)azetidin-2-yl]methoxy]-4-pyridyl]pyrazolo[1,5-a]pyridin-2-yl]cyclopropanecarboxamide] | 0.0703 |
| Cc1cc(-c2ccn3nc(Nc4cc(C(F)(F)F)nn4C)cc3c2)c(O[C@H]2C[C@H]3COC[C@@H](C2)N3C)cn1 [Example 174, N-(1-methyl-3-(trifluoromethyl)-1H-pyrazol-5-yl)-5-(2-methyl-5-(((1R,5S,7s)-9-methyl-3-oxa-9-azabicyclo[3.3.1]nonan-7-yl)oxy)pyridin-4-yl)pyrazolo[1,5-a]pyridin-2-amine] | 0.108 |
| Cc1cc(-c2ccn3nc(Nc4cncnc4)cc3c2)c(O[C@H]2C[C@H]3COC[C@@H](C2)N3C)cn1 [Example 415, 5-[2-methyl-5-[[(1S,5R,7s)-9-methyl-3-oxa-9-azabicyclo[3.3.1]nonan-7-yl]oxy]-4-pyridyl]-N-pyrimidin-5-yl-pyrazolo[1,5-a]pyridin-2-amine] | < 0.000847 |
| Cc1cc(-c2ccn3nc(Nc4ccncn4)cc3c2)c(O[C@H]2C[C@H]3COC[C@@H](C2)N3)cn1 [Example 395, 5-[2-methyl-5-[[(1R,5S,7s)-3-oxa-9-azabicyclo[3.3.1]nonan-7-yl]oxy]-4-pyridyl]-N-pyrimidin-4-yl-pyrazolo[1,5-a]pyridin-2-amine] | 0.000851 |

Same assay, conditions: enzyme 6 nM, 6 mM ATP and 400 μM HDAC5tide (each 2× final concentration); 30 minutes pre-incubation, 2 hours; ADP-Glo Max luminescence; read-out: SIK2 high ATP IC50 (μM) (Test Example 2)

| IC50 [µM] | Structure (SMILES) |
| --- | --- |
| 0.0362 | Cc1cc(-c2ccn3nc(Nc4cc(C)c(C(=O)NC5CC5)c(C)c4)cc3c2)c(OCC(C)(C)O)cn1 [Example 326, N-cyclopropyl-4-[[5-[5-(2-hydroxy-2-methyl-propoxy)-2-methyl-4-pyridyl]pyrazolo[1,5-a]pyridin-2-yl]amino]-2,6-dimethyl-benzamide] |
| 0.00317 | Cn1nc(Nc2cc3cc(-c4cc(OC(F)F)ncc4OCC(C)(C)C#N)ccn3n2)ccc1=O [Example 702, 3-[[6-(difluoromethoxy)-4-[2-[(1-methyl-6-oxo-pyridazin-3-yl)amino]pyrazolo[1,5-a]pyridin-5-yl]-3-pyridyl]oxy]-2,2-dimethyl-propanenitrile] |
| 0.0469 | Cc1cc(-c2ccn3nc(NC(=O)C4CC4)cc3c2)c(OC[C@]2(F)CCNC2)cn1 (single isomer, unassigned) [Example 448, (*S)—N-[5-[5-[(3-fluoropyrrolidin-3-yl)methoxy]-2-methyl-4-pyridyl]pyrazolo[1,5-a]pyridin-2-yl]cyclopropanecarboxamide] |
| 0.0245 | Cc1cc(-c2ccn3nc(Nc4cc(C)nc(C)n4)cc3c2)c(OC[C@]2(C)CCCO2)cn1 (single isomer, unassigned) [Example 232, (*S)—N-(2,6-dimethylpyrimidin-4-yl)-5-[2-methyl-5-[(2-methyltetrahydrofuran-2-yl)methoxy]-4-pyridyl]pyrazolo[1,5-a]pyridin-2-amine] |
| 0.0616 | Cc1cc(-c2ccn3nc(Nc4cc(C)nc(C)n4)cc3c2)c(OCC2(C#N)CC2)cn1 [Example 560, 1-[[4-[2-[(2,6-dimethylpyrimidin-4-yl)amino]pyrazolo[1,5-a]pyridin-5-yl]-6-methyl-3-pyridyl]oxymethyl]cyclopropanecarbonitrile] |
| 0.0153 | Cc1cc(-c2ccn3nc(Nc4cc(C)nc(C)n4)cc3c2)c(OCC(O)(C(F)(F)F)C(F)(F)F)cn1 [Example 259, 2-[[4-[2-[(2,6-dimethylpyrimidin-4-yl)amino]pyrazolo[1,5-a]pyridin-5-yl]-6-methyl-3-pyridyl]oxymethyl]-1,1,1,3,3,3-hexafluoro-propan-2-ol] |
| 0.275 | Cc1cc(Nc2cc3cc(-c4cc(OC(F)F)ncc4OCC(C)(N)C(F)(F)F)ccn3n2)nc(C)n1 (single isomer, unassigned) [Example 756, (*S)-5-[5-(2-amino-3,3,3-trifluoro-2-methyl-propoxy)-2-(difluoromethoxy)-4-pyridyl]-N-(2,6-dimethylpyrimidin-4-yl)pyrazolo[1,5-a]pyridin-2-amine] |
| 0.0278 | Cc1cc(-c2ccn3nc(NC(=O)C4CC4)cc3c2)c(OCC2(O)CCNC2)cn1 (single isomer, unassigned) [Example 223, (*R)—N-[5-[5-[(3-hydroxypyrrolidin-3-yl)methoxy]-2-methyl-4-pyridyl]pyrazolo[1,5-a]pyridin-2-yl]cyclopropanecarboxamide] |
| 0.00143 | COc1cc(-c2ccn3nc(Nc4cc(C)nc(C)n4)cc3c2)c(OC[C@@H]2CNCCO2)cn1 [Example 496, N-(2,6-dimethylpyrimidin-4-yl)-5-[2-methoxy-5-[[(2S)-morpholin-2-yl]methoxy]-4-pyridyl]pyrazolo[1,5-a]pyridin-2-amine] |
| 0.014 | Cc1cc(Nc2cc3cc(-c4cc(OCC(F)F)ncc4OCC(C)(C)C#N)ccn3n2)nn(C2CC2)c1=O [Example 737, 3-((4-(2-((1-cyclopropyl-5-methyl-6-oxo-1,6-dihydropyridazin-3-yl)amino)pyrazolo[1,5-a]pyridin-5-yl)-6-(2,2-difluoroethoxy)pyridin-3-yl)oxy)-2,2-dimethylpropanenitrile] |
| 0.116 | Cc1cc(-c2ccn3nc(Nc4cnccn4)cc3c2)c(OC[C@H]2CN(C)CCO2)cn1 [Example 611, 5-[2-methyl-5-[[(2R)-4-methylmorpholin-2-yl]methoxy]-4-pyridyl]-N-pyrazin-2-yl-pyrazolo[1,5-a]pyridin-2-amine] |
| 0.0471 | Cc1cnc(Nc2cc3cc(-c4cc(C)ncc4OCC(C)(C)O)ccn3n2)cn1 [Example 541, 2-methyl-1-[[6-methyl-4-[2-[(5-methylpyrazin-2-yl)amino]pyrazolo[1,5-a]pyridin-5-yl]-3-pyridyl]oxy]propan-2-ol] |
| 0.0172 | Cc1cnc(Nc2cc3cc(-c4cc(C)ncc4OC[C@]45C[C@H](CO4)N(C)C5)ccn3n2)cn1 [Example 236, 5-[2-methyl-5-[[(1R,4R)-2-methyl-5-oxa-2-azabicyclo[2.2.1]heptan-4-yl]methoxy]-4-pyridyl]-N-(5-methylpyrazin-2-yl)pyrazolo[1,5-a]pyridin-2-amine] |
| 0.00911 | Cc1cc(Nc2cc3cc(-c4cc(OC(F)F)ncc4OCC(C)(C)C(=O)N(C)C)ccn3n2)nc(C)n1 [Example 735, 3-[[6-(difluoromethoxy)-4-[2-[(2,6-dimethylpyrimidin-4-yl)amino]pyrazolo[1,5-a]pyridin-5-yl]-3-pyridyl]oxy]-N,N,2,2-tetramethyl-propanamide] |
| 0.0497 | Cc1cc(-c2ccn3nc(Nc4cc(C)nc(C)n4)cc3c2)c(OC[C@@H]2CC3(CCCC3)CO2)cn1 (single isomer, unassigned) [Example 219, (*S)—N-(2,6-dimethylpyrimidin-4-yl)-5-[2-methyl-5-(8-oxaspiro[4.4]nonan-7-ylmethoxy)-4-pyridyl]pyrazolo[1,5-a]pyridin-2-amine] |
| 0.00343 | COCc1nc(C)cc(Nc2cc3cc(-c4cc(C)ncc4O[C@H]4CC[C@H](O)CC4)ccn3n2)n1 [Example 225, (1r,4r)-4-((4-(2-((2-(methoxymethyl)-6-methylpyrimidin-4-yl)amino)pyrazolo[1,5-a]pyridin-5-yl)-6-methylpyridin-3-yl)oxy)cyclohexan-1-ol] |
| 0.00997 | Cc1cc(-c2ccn3nc(Nc4cc(C)nc(C)n4)cc3c2)c(OCCC(C)(C)O)cn1 [Example 555, 4-[[4-[2-[(2,6-dimethylpyrimidin-4-yl)amino]pyrazolo[1,5-a]pyridin-5-yl]-6-methyl-3-pyridyl]oxy]-2-methyl-butan-2-ol] |
| 0.00358 | Cc1cc(Nc2cc3cc(-c4cc(OC(F)F)ncc4OCC(C)(C)C#N)ccn3n2)nc(C)n1 [Example 329, 3-[[6-(difluoromethoxy)-4-[2-[(2,6-dimethylpyrimidin-4-yl)amino]pyrazolo[1,5-a]pyridin-5-yl]-3-pyridyl]oxy]-2,2-dimethyl-propanenitrile] |
| 0.00319 | Cc1cc(Nc2cc3cc(-c4cc(OC(F)F)ncc4OCC(C)(C)O)ccn3n2)nc(C)n1 [Example 679, 1-[[6-(difluoromethoxy)-4-[2-[(2,6-dimethylpyrimidin-4-yl)amino]pyrazolo[1,5-a]pyridin-5-yl]-3-pyridyl]oxy]-2-methyl-propan-2-ol] |
| 0.00591 | CC(C)(C#N)COc1cnc(OC(F)F)cc1-c1ccn2nc(Nc3cccnn3)cc2c1 [Example 708, 3-[[6-(difluoromethoxy)-4-[2-(pyridazin-3-ylamino)pyrazolo[1,5-a]pyridin-5-yl]-3-pyridyl]oxy]-2,2-dimethyl-propanenitrile] |
| 0.0234 | COc1ccccc1COc1cnc(C)cc1-c1ccn2nc(Nc3cc(C)nc(C)n3)cc2c1 [Example 271, N-(2,6-dimethylpyrimidin-4-yl)-5-[5-[(2-methoxyphenyl)methoxy]-2-methyl-4-pyridyl]pyrazolo[1,5-a]pyridin-2-amine] |
| 0.00362 | Cc1cc(-c2ccn3nc(Nc4cc(C)nc(C)n4)cc3c2)c(O[C@@H]2CCS(=O)(=O)C2)cn1 [Example 344, N-(2,6-dimethylpyrimidin-4-yl)-5-[5-[(3R)-1,1-dioxothiolan-3-yl]oxy-2-methyl-4-pyridyl]pyrazolo[1,5-a]pyridin-2-amine] |

From US20240158392A1 (Janssen Biotech, Inc., priority 2021, published 2024)
